Data on 76 compounds can be found in PubChem BioAssay AID1208 (EPA DSSTox, 2008).

Activity calls are given as the source filed them.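 How the source made its calls: active means at least one rat sex group has a carcinogenic potency value and tumor site recorded; inconclusive means only rat studies were judged inadequate by the national testing program; inactive means no potency or tumor site, with negative rat experiments.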 *1 amine or outer side, *2 acyl side, *3 side chain or, on linkers, in order; H or OH if unused. Where a SMILES comes first, the peptide text is derived from it. Bridges are numbered along the chain shown (N, C = ends). Roman numbers before positions name the chains, in order. [ ]: non-standard residue; d: D form. Actinocin(9to1) = Cc1c2oc3c(C)ccc(C(=O)[*:1])c3nc-2c(C(=O)[*:2])c(N)c1=O; NMeV = CN[C@H](C(=O)O)C(C)C; Sar = CNCC(=O)O

This series concerns rat chronic carcinogenicity bioassay, TD50. Put plainly: DSSTox (CPDBAS) Carcinogenic Potency Database Summary Rat Bioassay Results. The conditions noted are these: for Potency: stronger effect = lower value. The procedure, abridged:
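The activity score maps log10(1/TD50_Rat_mmol) linearly onto 1–100; actives without a computed TD50, such as mixtures, receive 50. Source data are chronic rat carcinogenicity tests, using the most positive experiment for each sex.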

[1] abbreviates: TD50_Rat_Note: TD50 is harmonic mean of more than one positive test, TargetSites_Rat_Female: stomach.
Setting [2] is: TD50_Rat_Note: TD50 is harmonic mean of more than one positive test, TargetSites_Rat_Female: liver.
Setting [3] is: TargetSites_Rat_Female: no positive results.
The mark [4] stands for this setting: TD50_Rat_Note: no positive results.
Setting [5] is: TD50_Rat_Note: no positive results, TargetSites_Rat_Female: no positive results.
The mark [6] stands for this setting: TD50_Rat_Note: TD50 is harmonic mean of more than one positive test, greater than ten-fold variation among TD50 values for positive res, TargetSites_Rat_Female: liver.
Where [7] appears, read: TD50_Rat_Note: no positive results, TargetSites_Rat_BothSexes: no positive results.

Regarding `Cc1ccc(Cc2cnc(NCCSCc3ccc(CN(C)C)o3)[nH]c2=O)cn1`, the Potency under setting [1] is 3360 mg/kg/day. As to `CCCCC(CC)COC(=O)c1ccccc1C(=O)OCC(CC)CCCC` (stereo not drawn), the Potency under setting [2] is 716 mg/kg/day. With `CC(=O)Nc1ccc(O)cc1`, under “TD50_Rat_Note: TD50 is harmonic mean of more than one positive test, TargetSites_Rat_Female: liver, urinary bladder”, the Potency is 495 mg/kg/day. Consider `ClC#CCl`, for which the Potency (TD50_Rat_Note: TD50 is harmonic mean of more than one positive test, TargetSites_Rat_Female: hematopoietic system, kidney, liver) is 3.58 mg/kg/day. Take `O=C(O)CCCc1ccc(N(CCCl)CCCl)cc1`: the Potency (TD50_Rat_Note: TD50 is harmonic mean of more than one positive test, TargetSites_Rat_Female: ear Zymbals gland, mammary gland, nervous system) was 0.896 mg/kg/day.

In the case of `CC(=O)Nc1ccc(-c2ccccc2)cc1`, the Potency (TargetSites_Rat_Female: mammary gland) is 1.18 mg/kg/day. With `CC[C@H](OC(C)=O)C(C[C@H](C)N(C)C)(c1ccccc1)c1ccccc1`, under setting [2], the Potency is 68 mg/kg/day. For `COc1c(Cl)c(Cl)c(Cl)c(Cl)c1Cl`, the Potency under setting [3] is 24.8 mg/kg/day. Consider `O=Nc1ccc(NO)cc1`, for which the Potency (TargetSites_Rat_Female: urinary bladder) is 106 mg/kg/day. As to `CC1CN(N=O)CC(C)N1C` (stereo not drawn), the Potency (TargetSites_Rat_Female: nasal cavity) was 0.151 mg/kg/day. Regarding `CC[N+]([O-])=NC`, the Potency is 0.0189 mg/kg/day. With `CC(F)(Cl)Cl`, under setting [3], the Potency is 5260 mg/kg/day. Regarding `CN(N=O)C(N)=O`, the Potency is 0.0927 mg/kg/day. Consider `CC(O)c1ccccc1` (stereo not drawn), for which, under setting [3], the Potency is 458 mg/kg/day. As for `CC1(C)[C@@H](O)CC[C@]2(C)[C@H]3C(=O)C=C4[C@@H]5C[C@@](C)(C(=O)O)CC[C@]5(C)CC[C@@]4(C)[C@]3(C)CC[C@@H]12`, the outcome under setting [4] is “inactive; no positive results”. Turning to `CC(=O)c1ccc(S(=O)(=O)NC(=O)NC2CCCCC2)cc1`, under setting [5], the outcome is “inactive; no positive results”. Regarding `O=NN1CN2CN(C1)CN(N=O)C2`, the outcome under setting [4] is “inactive; no positive results”. Turning to `C/C=C/C=C/C(=O)O`, under setting [5], the outcome was “inactive; no positive results”. On the same count and under the same terms, next, `O=[N+]([O-])c1cc(N(CCO)CCO)ccc1NCCO`: “inactive; no positive results”; `C=CCOc1ccccc1OCC(O)CNC(C)C` (stereo not drawn): “inactive; no positive results”; `O=c1ccc(=O)[nH][nH]1`: “inactive; no positive results”.

In the case of `Cc1cn([C@H]2C[C@H](N=[N+]=[N-])[C@@H](CO)O2)c(=O)[nH]c1=O`, the Potency (TargetSites_Rat_Female: vagina) was 11600 mg/kg/day. For the compound `C=Cc1cccc(C)c1`, the outcome under setting [5] is “inactive; no positive results”.

Turning to `[Cl-].[Cl-].[Sn+2]`, the outcome under setting [5] is “inactive; no positive results”.

Regarding `C=CCOc1ccc(CC(=O)O)cc1Cl`, the outcome under setting [5] was “inactive; no positive results”.

Consider `COC(=O)C(c1ccccc1)C1CCCCN1` (stereo not drawn), for which the outcome under setting [5] is “inactive; no positive results”. In the case of `C/C=C1/C[C@@H](C)[C@](O)(CO)C(=O)OCC2=CCN3CC[C@@H](OC1=O)[C@@H]23`, the Potency was 0.862 mg/kg/day. Turning to `O=CNNc1nc(-c2ccc([N+](=O)[O-])o2)cs1`, the Potency (TD50_Rat_Note: TD50 is harmonic mean of more than one positive test, TargetSites_Rat_Female: ear Zymbals gland, hematopoietic system, kidney, large intestine, liver, mammary gland, small intestine) was 5.06 mg/kg/day. In the case of `Cc1ccc(C)c(N)c1`, the Potency is 152 mg/kg/day. Take `CC(O)CN(CCO)N=O` (stereo not drawn): the Potency (TargetSites_Rat_Female: esophagus, liver, vascular system) is 1.02 mg/kg/day.

As to `COc1ccc(CCN2CCC(Nc3nc4ccccc4n3Cc3ccc(F)cc3)CC2)cc1`, under setting [5], the outcome was “inactive; no positive results”. Take `CCN(CC(F)(F)F)N=O`: the Potency is 2.52 mg/kg/day.

Consider `CC(C)=CCC/C(C)=C/C=O`, for which the outcome under setting [5] is “inactive; no positive results”. Regarding `NS(=O)(=O)c1cc2c(cc1Cl)NCNS2(=O)=O`, under setting [5], the outcome is “inactive; no positive results”. Take `c1ccc(Nc2ccc(Nc3ccccc3)cc2)cc1`: under setting [5], the outcome is “inactive; no positive results”.

Regarding `O=C(O)O`, the Potency (TD50_Rat_Note: TD50 is harmonic mean of more than one positive test, TargetSites_Rat_Female: urinary bladder) is 13000 mg/kg/day. In addition, under setting [4], the outcome was “inactive; no positive results”. Take `CC1=C(C(=O)OC(C)C)C(c2cccc([N+](=O)[O-])c2)C(C(=O)OC2CN(C(c3ccccc3)c3ccccc3)C2)=C(N)N1` (stereo not drawn): the outcome under setting [5] is “inactive; no positive results”. On to `CN(N=O)c1ccc(F)cc1`, for which the Potency is 0.255 mg/kg/day. Turning to `FC(F)(F)C(Cl)Cl`, under setting [6], the Potency is 2370 mg/kg/day. `CC[C@H]1CN2CCc3cc(OC)c(OC)cc3[C@@H]2C[C@@H]1C[C@H]1NCCc2cc(OC)c(OC)cc21`: where the note is “TD50_Rat_Note: only experiment is NCI/NTP bioassay inadequate, TargetSites_Rat_Female: NTP bioassay inadequate”, the outcome was “ntp bioassay inadequate”.

For `ClC(Cl)C(Cl)Cl`, the outcome under setting [5] was “inactive; no positive results”. `CC(=O)N[C@@H](CS)C(=O)O`: under setting [4], the outcome is “inactive; no positive results”.

In the case of `O=c1ccc2ccccc2o1`, the Potency under setting [6] is 39.2 mg/kg/day.

On to `OCC(O)CO`, for which the outcome under setting [7] was inactive. In the case of `CCCCC(CC)COC(=O)CCCCC(=O)OCC(CC)CCCC` (stereo not drawn), the outcome under setting [5] is “inactive; no positive results”.

Regarding `CN[C@H]1CCc2cc(OC)c(OC)c(OC)c2-c2ccc(OC)c(=O)cc21`, under setting [4], the outcome is “inactive; no positive results”. For the compound `ClCc1ccccn1`, the outcome under setting [5] is “inactive; no positive results”.

On to `CCOP(=S)(OCC)Oc1cc(C)nc(C(C)C)n1`, for which the outcome under setting [5] was “inactive; no positive results”. In the case of `NN`, the Potency (TD50_Rat_Note: TD50 is harmonic mean of more than one positive test, greater than ten-fold variation among TD50 values for positive res, TargetSites_Rat_Female: liver, lung, nasal cavity) is 0.613 mg/kg/day. With `CN(Cc1cnc2nc(N)nc(N)c2n1)c1ccc(C(=O)N[C@@H](CCC(=O)O)C(=O)O)cc1`, under setting [5], the outcome is “inactive; no positive results”. Consider `CCOc1ccc(NC(C)=O)cc1[N+](=O)[O-]`, for which the outcome under setting [5] was “inactive; no positive results”. Still for that read-out and setting: next, `FC(F)(Cl)C(F)(Cl)Cl`: “inactive; no positive results”; `C/C=C/c1ccc(OC)cc1`: “inactive; no positive results”; `CCOP(=S)(OCC)Oc1nc(Cl)c(Cl)cc1Cl`: “inactive; no positive results”.

With `O=S(=O)(O)c1cc(S(=O)(=O)O)c2c(N=Nc3ccc(S(=O)(=O)O)c4ccccc34)c(O)ccc2c1`, under “TargetSites_Rat_BothSexes: all tumor bearing animals”, the Potency is 24500 mg/kg/day.

For `ClC(Cl)=C(Cl)Cl`, the Potency (TD50_Rat_Note: TD50 is harmonic mean of more than one positive test, TargetSites_Rat_Female: hematopoietic system) is 145 mg/kg/day. As for `O=Nc1ccc(Nc2ccccc2)cc1`, the Potency under setting [3] is 201 mg/kg/day. Regarding `CC(N)Cc1ccccc1` (stereo not drawn), the outcome under setting [5] was “inactive; no positive results”. Same read-out and setting: next, `Cn1c(=O)c2[nH]cnc2n(C)c1=O`: “inactive; no positive results”.

As to `Cl/C=C/CCl`, the Potency is 94 mg/kg/day under setting [1] and 100 mg/kg/day under setting [5]. For `ClC(Br)Br`, the outcome under setting [5] was “inactive; no positive results”. Regarding `Nc1nc(-c2ccc([N+](=O)[O-])o2)cs1`, the Potency (TargetSites_Rat_Female: stomach, urinary bladder) was 5.85 mg/kg/day. Consider `CCN(N=O)C(=O)NCC(C)=O`, for which, where the note is “TD50_Rat_Note: TD50 is harmonic mean of more than one positive test, harmonic mean of TD50 includes a value for upper 99% confidence li, TargetSites_Rat_Female: large intestine, lung, mammary gland, nervous system, skin, thyroid gland, uterus”, the Potency was 0.181 mg/kg/day.

With `CCOC(=O)C(O)(c1ccc(Cl)cc1)c1ccc(Cl)cc1`, under setting [5], the outcome was “inactive; no positive results”. Regarding `O=C/C=C/O`, the Potency (TD50_Rat_Note: TD50 is harmonic mean of more than one positive test, TargetSites_Rat_Female: thyroid gland) is 122 mg/kg/day. As to `CC(=O)Nc1ccc(-c2ccccc2)cc1O`, the outcome under setting [5] was inactive. Turning to `CC(O)CNCC(C)O` (stereo not drawn), under setting [4], the outcome is “inactive; no positive results”. Turning to `C=C(C)[C@H]1CC=C(C)CC1`, the Potency under setting [3] is 204 mg/kg/day. Take `CC(=O)OCC(=O)[C@@]12N=C(C)O[C@@H]1C[C@H]1[C@@H]3CCC4=CC(=O)C=C[C@]4(C)[C@H]3[C@@H](O)C[C@@]12C`: the outcome (TD50_Rat_Note: TD50 not calculated by CPDB Source, TD50_Rat_mmol was not calculated, but Activiity Score is assigned value of 50 to ind, TargetSites_Rat_Female: no positive results) is “active; bone”.

With `Cc1c2oc3c(C)ccc(C(=O)N[C@@H]4C(=O)N[C@H](C(C)C)C(=O)N5CCC[C@H]5C(=O)N(C)CC(=O)N(C)[C@@H](C(C)C)C(=O)O[C@@H]4C)c3nc-2c(C(=O)N[C@@H]2C(=O)N[C@H](C(C)C)C(=O)N3CCC[C@H]3C(=O)N(C)CC(=O)N(C)[C@@H](C(C)C)C(=O)O[C@@H]2C)c(N)c1=O` (I: T[dV]P[Sar][NMeV] / II: T[dV]P[Sar][NMeV]; ester I:1-I:C, II:1-II:C; linker I:N-II:N via Actinocin(9to1)), the Potency (TD50_Rat_Note: positive test results only by intraperitoneal or intravenous injection, TD50 is harmonic mean of more than one positive, TargetSites_Rat_Female: peritoneal cavity) was 0.00111 mg/kg/day. For the compound `Clc1cccc(-c2cccc(Cl)c2)c1`, the Potency (TD50_Rat_Note: no positive results are statistically significant, TD50_Rat_mmol was not calculated for this mixture, but Activiity Scor) is 157 mg/kg/day. On to `CC(=O)CN(N=O)C(N)=O`, for which the outcome under setting [5] was “inactive; no positive results”. In the case of `O=C1c2cccc(O)c2C(=O)c2c(O)cccc21`, the Potency is 245 mg/kg/day. In the case of `C[C@]12C=CC(=O)C=C1CC[C@@H]1[C@@H]2[C@@H](O)C[C@@]2(C)[C@H]1CC[C@]2(O)C(=O)CO`, the Potency under setting [3] was 1.53 mg/kg/day.

Take `COc1cc(NC(=O)C(N=Nc2ccc(-c3ccc(N=NC(C(C)=O)C(=O)Nc4cc(OC)c(Cl)cc4OC)c(Cl)c3)cc2Cl)C(C)=O)c(OC)cc1Cl` (stereo not drawn): the result under setting [7] was inactive. As to `C=CCOC(=O)CC(C)C`, the Potency under setting [3] was 123 mg/kg/day.
